The source of these data is patent US20220000841A1, “INHIBITORS OF METALLO-BETA-LACTAMASES” (CENTRE NATIONAL DE LA RECHERCHE SCIENTIFIQUE, priority 2018, published 2022).

Read-outs that look alike come from different tables or passages of the source.

What all share (assay type): biochemical
Assay [1] deals with IMP-1 (Serratia marcescens, UniProt P52699). The assay can be described thus: Enzymatic assay for determination of inhibition constants, reporter substrate method, purified IMP-1.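 As to all read-outs here: purified IMP-1 (1-70 nM) hydrolysing a reporter substrate, initial rates followed as absorbance change at 260, 300 or 482 nm in 50 mM HEPES pH 7.5.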 The note with it: for Ki: isolated MBL, competitive inhibition model; for % inhibition IMP-1: at 200 μM (maximal tested concentration).
Sequence of IMP-1 (P52699 19-246, looked up, species assumed): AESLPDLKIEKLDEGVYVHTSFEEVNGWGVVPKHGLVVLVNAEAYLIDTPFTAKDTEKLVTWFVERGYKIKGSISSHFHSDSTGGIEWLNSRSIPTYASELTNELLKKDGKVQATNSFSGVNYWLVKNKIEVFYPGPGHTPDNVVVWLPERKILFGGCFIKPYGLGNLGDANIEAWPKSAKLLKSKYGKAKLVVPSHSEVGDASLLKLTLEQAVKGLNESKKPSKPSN
Protocol: (§1) The reaction rate was measured as the variation of absorbance observed upon substrate hydrolysis in a UV-Vis spectrophotometer or microplate reader at a wavelength of 300 nm (imipenem, meropenem), 260 nm (cefotaxime) or 482 nm (nitrocefin) in 50 mM HEPES buffer (pH 7.5) and in the presence of a purified MBL enzyme (such as VIM-1, VIM-2, VIM-4, NDM-1 and IMP-1, at a final concentration ranging 1-70 nM).
(§2) The inhibition constants (Ki) were determined on the basis of a model of competitive inhibition by analyzing the dependence of the ratio v0/vi (v0, hydrolysis velocity in the absence of inhibitor; vi, hydrolysis velocity in the presence of inhibitor) as a function of [I] as already described [Docquier J. D., Lamotte-Brasseur J., Galleni M., Amicosante G., Frère J. M., Rossolini G. M. (2003) J. Antimicrob. […] The slope of the plot of v0/vi vs [I], which corresponds to Km^S/(Km^S+[S])Ki (where Km^S is the Km value of the reporter substrate and [S] its concentration in the reaction mixture) and allowed the calculation of the Ki value. Alternatively, a Dixon plot analysis was carried out, by measuring the initial hydrolysis rates in the presence of variable concentrations of inhibitor and substrate.
The target in assay [2] is NDM-1 (Klebsiella pneumoniae, UniProt C7C422). As to the kind of experiment: Enzymatic assay for determination of inhibition constants, reporter substrate method, purified NDM-1.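 As to all read-outs here: purified enzyme activity followed as absorbance change from reporter substrate hydrolysis on a UV-Vis spectrophotometer or plate reader, 50 mM HEPES pH 7.5.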 The following applies: for Ki: isolated MBL, competitive inhibition model.
Sequence of NDM-1 (C7C422 29-270, looked up, species assumed): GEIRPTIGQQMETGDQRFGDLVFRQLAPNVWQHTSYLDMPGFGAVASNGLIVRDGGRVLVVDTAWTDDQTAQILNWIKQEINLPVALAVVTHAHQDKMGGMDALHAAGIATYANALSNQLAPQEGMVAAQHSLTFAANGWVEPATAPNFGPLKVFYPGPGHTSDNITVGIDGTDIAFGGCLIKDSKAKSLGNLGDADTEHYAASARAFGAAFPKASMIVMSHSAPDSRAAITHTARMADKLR
Protocol: as §1, §2
In assay [3] the target is VIM-2 (Escherichia coli, UniProt Q5U7L7). As to the kind of experiment: Enzymatic assay for determination of inhibition constants, reporter substrate method, purified VIM-2.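 Also: purified VIM-2 hydrolysing a reporter substrate (imipenem, meropenem, cefotaxime or nitrocefin), reaction rate read as absorbance change, HEPES 50 mM at pH 7.5.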
Protocol: as §1, §2
Assay [4] addresses VIM-4 (Pseudomonas aeruginosa, UniProt Q8KRJ3). The assay can be described thus: Enzymatic assay for determination of inhibition constants, reporter substrate method, purified VIM-4.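 Also: purified VIM-4 (1-70 nM) in 50 mM HEPES pH 7.5, reporter substrate hydrolysis rate tracked by absorbance change (nitrocefin 482 nm, imipenem or meropenem 300 nm, cefotaxime 260 nm).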 The following applies: at 100 μM (maximal tested concentration).
The target of assay [5] is VIM-1 (Pseudomonas aeruginosa, UniProt A0A0F7KYQ8). The assay can be described thus: Enzymatic assay for determination of inhibition constants, reporter substrate method, purified VIM-1.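 Also: initial hydrolysis rates of a reporter β-lactam (imipenem, meropenem, cefotaxime or nitrocefin) followed by absorbance change, purified enzyme at 1–70 nM in 50 mM HEPES pH 7.5.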 The following applies: isolated MBL, competitive inhibition model.
Where [6] appears, read: at 100 μM (maximal tested concentration).
Where [7] appears, read: at 200 μM (maximal tested concentration).
Where [8] appears, read: isolated MBL, competitive inhibition model, read-out: Ki VIM-2.
[9] abbreviates: as listed in Table 2, read-out: Ki on VIM-2.

A word on the Ki: it is the dissociation constant of the complex between target and ligand, obtained from inhibition or displacement. For `O=C(O)c1ccccc1CNn1c(-c2cccc(-c3ccccc3)c2)n[nH]c1=S` [Compound 51, o-{[3-(3-Biphenylyl)-5-thioxo-1,4-dihydro-1,2,4-triazol-4-ylamino]methyl}benzoic acid], the inhibition constant (Ki) in assay [1] and in assay [2] was more than 100 µM in each case. The “% inhibition VIM-2” value in assay [3] (setting [6]) worked out at 75% at 100 μM.

Take `O=C(O)c1ccccc1CCn1c(-c2ccc[nH]2)n[nH]c1=S` [Compound 57, o-{2-[3-(1H-Pyrrol-2-yl)-5-thioxo-1,4-dihydro-1,2,4-triazol-4-yl]ethyl}benzoic acid]: the Ki in assay [1] is more than 100 µM. Also, the “% inhibition VIM-4” value in assay [4] amounted to 65% at 100 μM. In assay [2] (setting [7]), the “% inhibition NDM-1” value is given as 60% at 200 μM. In assay [3] (setting [7]), the “% inhibition VIM-2” value stood at 80% at 200 μM.

Regarding `O=C(O)C(SCCn1c(-c2ccccc2)n[nH]c1=S)c1ccccc1` (centres unmarked) [Compound 60, Phenyl[2-(3-phenyl-5-thioxo-1,4-dihydro-1,2,4-triazol-4-yl)ethylthio]acetic acid], the inhibition constant Ki in assay [1] and in assay [2] was more than 100 µM throughout. Moreover, the “% inhibition VIM-2” value in assay [3] (setting [6]) stood at 96% at 100 μM.

For the molecule `O=C(O)CCCCCCCn1c(-c2ccccc2)n[nH]c1=S` [Compound 59, 8-(3-Phenyl-5-thioxo-1,4-dihydro-1,2,4-triazol-4-yl)octanoic acid], the Ki in assay [1] and in assay [2] was more than 100 µM in each case. Further, in assay [3] (setting [6]), the “% inhibition VIM-2” value is listed as 90% at 100 μM.

Regarding `Oc1ccc(CCn2c(-c3ccccc3)n[nH]c2=S)c(O)c1` [Compound 41, 4-[2-(2,4-Dihydroxyphenyl)ethyl]-5-phenyl-1,2,4-triazole-3-thione], the Ki in assay [5] was more than 100 µM; in assay [1], 10 to 100 µM; in assay [2], 10 to 100 µM; in assay [3] (setting [8]), more than 100 µM.

Turning to `O=C(O)c1cccc(Cn2c(-c3ccccc3)n[nH]c2=S)c1` [Compound 52, m-[(3-Phenyl-5-thioxo-1,4-dihydro-1,2,4-triazol-4-yl)methyl]benzoic acid], the inhibition constant (Ki) in assay [1] and in assay [2] was more than 100 µM each time. Besides, the “% inhibition VIM-2” value in assay [3] (setting [6]) stood at 84% at 100 μM.

Regarding `O=C(O)CC(Cn1c(-c2ccccc2)n[nH]c1=S)c1ccccc1` (centres unmarked) [Compound 46, 3-Phenyl-4-(3-phenyl-5-thioxo-1,4-dihydro-1,2,4-triazol-4-yl)butyric acid], the Ki in assay [5], in assay [1], in assay [2] and in assay [3] (setting [8]) was more than 100 µM throughout.

On to `O=C(O)c1ccccc1CCn1c(-c2ccc3ccccc3n2)n[nH]c1=S` [Compound 36, 2-{2-[3-(Quinolin-2-yl)-5-sulfanylidene-4,5-dihydro-1H-1,2,4-triazol-4-yl]ethyl}benzoic acid], for which the Ki in assay [1], in assay [2] and in assay [3] (setting [8]) was more than 100 µM throughout. Moreover, in assay [4], the “% inhibition VIM-4” value is on record as 85% at 100 μM.

Consider `O=C(O)c1ccccc1CCn1c(-c2ccsc2)n[nH]c1=S` [Compound 58, o-{2-[3-(3-Thienyl)-5-thioxo-1,4-dihydro-1,2,4-triazol-4-yl]ethyl}benzoic acid], for which the Ki in assay [1] and in assay [2] was more than 100 µM each time. The “% inhibition VIM-2” value in assay [3] (setting [6]) was found to be 85% at 100 μM.

`Cc1ccccc1-c1n[nH]c(=S)n1/N=C/c1ccccc1C(=O)O` [II, reference compound]: in assay [3] (setting [9]), the Ki lay within 1 to 10 µM.

Consider `Oc1ccc(CCn2c(-c3ccccc3-c3ccccc3)n[nH]c2=S)c(O)c1` [Compound 43, 5-(2-Biphenyl)-4-[2-(2,4-dihydroxyphenyl)ethyl]-1,2,4-triazole-3-thione], for which the Ki in assay [5] is more than 100 µM; in assay [1], more than 100 µM; in assay [2] it was 10 to 100 µM; in assay [3] (setting [8]), more than 100 µM.

Consider `O=C(O)CCCn1c(-c2ccccc2)n[nH]c1=S` [Compound 2, 4-(3-phenyl-5-sulfanylidene-4,5-dihydro-1H-1,2,4-triazol-4-yl)butanoic acid], for which the Ki in assay [5] was more than 100 µM; in assay [1], more than 100 µM; in assay [2], more than 100 µM; in assay [3] (setting [9]), 1 to 10 µM; in assay [3] (setting [8]) it was 1 to 10 µM.

Take `Nc1ccc(CCn2c(-c3ccccc3)n[nH]c2=S)c(C(=O)O)c1` [Compound 61, 5-Amino-2-[2-(3-phenyl-5-thioxo-1,4-dihydro-1,2,4-triazol-4-yl)ethyl]benzoic acid]: the Ki in assay [1] and in assay [2] was more than 100 µM each time. Besides, the “% inhibition VIM-2” value in assay [3] (setting [6]) came to 75% at 100 μM.

Take `O=C(O)c1ccccc1CCn1c(-c2ccc3ncccc3c2)n[nH]c1=S` [Compound 56, 2-{2-[3-(Quinolin-6-yl)-5-sulfanylidene-4,5-dihydro-1H-1,2,4-triazol-4-yl]ethyl}benzoic acid]: the Ki in assay [1] and in assay [2] was more than 100 µM each time. For the same molecule, the “% inhibition VIM-2” value in assay [3] (setting [6]) was 85% at 100 μM.

In the case of `S=c1[nH]nc(-c2ccccc2)n1CCCc1ccccc1` [Compound 8, 3-phenyl-4-(3-phenylpropyl)-4,5-dihydro-1H-1,2,4-triazole-5-thione], in assay [1], the “% inhibition IMP-1” value was 70% at 200 μM. In addition, the Ki in assay [2] and in assay [3] (setting [8]) was more than 100 µM throughout.

With `COc1ccc(O)c(-c2n[nH]c(=S)n2CCc2ccccc2)c1` [Compound 10, 3-(2-hydroxy-5-methoxyphenyl)-4-(2-phenylethyl)-4,5-dihydro-1H-1,2,4-triazole-5-thione], the Ki in assay [5] lay within 1 to 10 µM; in assay [1] it was 10 to 100 µM; in assay [2], 1 to 10 µM; in assay [3] (setting [8]), 1 to 10 µM.

Turning to `O=C(O)c1cc(O)ccc1CCn1c(-c2ccccc2)n[nH]c1=S` [Compound 53, 5-Hydroxy-2-[2-(3-phenyl-5-thioxo-1,4-dihydro-1,2,4-triazol-4-yl)ethyl]benzoic acid], the Ki in assay [1] and in assay [2] was more than 100 µM in each case. For the same molecule, in assay [3] (setting [6]), the “% inhibition VIM-2” value is listed as 90% at 100 μM.

Regarding `Sc1nnc(-c2ccccc2)n1Cc1ccccc1` [Compound 9, 4-benzyl-3-phenyl-4,5-dihydro-1H-1,2,4-triazole-5-thione], the Ki in assay [1] is 1 to 10 µM; in assay [2], more than 100 µM; in assay [3] (setting [8]), more than 100 µM.

In the case of `S=c1[nH]nc(-c2ccccc2)n1CCc1ccc(OCc2ccccc2)cc1` [Compound 54, 4-[4-(Benzyloxy)phenylethyl]-5-phenyl-1,2,4-triazole-3-thione], the “% inhibition IMP-1” value in assay [1] turned out to be 60% at 200 μM. In addition, the figures for the Ki in assay [2] and in assay [3] (setting [8]) were more than 100 µM and 10 to 100 µM, respectively.

Regarding `O=C(O)c1ccccc1CNn1c(-c2ccccc2)n[nH]c1=S` [Compound 5, 2-{[(3-phenyl-5-sulfanylidene-4,5-dihydro-1H-1,2,4-triazol-4-yl)amino]methyl}benzoic acid], the Ki in assay [5] is more than 100 µM; in assay [1], more than 100 µM; in assay [2] it was more than 100 µM; in assay [3] (setting [9]) it was 1 to 10 µM; in assay [3] (setting [8]) it was 1 to 10 µM.

`O=C(O)CSCCn1c(-c2ccccc2)n[nH]c1=S` [Compound 65, [2-(3-Phenyl-5-thioxo-1,4-dihydro-1,2,4-triazol-4-yl)ethylthio]acetic acid]: the Ki in assay [1] and in assay [2] was more than 100 µM in each case. The “% inhibition VIM-2” value in assay [3] (setting [6]) came to 90% at 100 μM.

Take `O=C(O)c1ccc(Cn2c(-c3ccccc3)n[nH]c2=S)cc1` [Compound 55, p-[(3-Phenyl-5-thioxo-1,4-dihydro-1,2,4-triazol-4-yl)methyl]benzoic acid]: the Ki in assay [1] and in assay [2] was more than 100 µM throughout. Moreover, in assay [4], the “% inhibition VIM-4” value was 80% at 100 μM. The “% inhibition VIM-2” value in assay [3] (setting [7]) stood at 80% at 200 μM.

For the molecule `O=C(O)c1ccccc1CCn1c(-c2ccc(OCc3ccccc3)cc2)n[nH]c1=S` [Compound 40, 5-(4-Benzyloxyphenyl)-4-[2-(2-carboxyphenyl)ethyl]-1,2,4-triazole-3-thione], the inhibition constant (Ki) in assay [5] was more than 100 µM; in assay [1], more than 100 µM; in assay [2] it was more than 100 µM; in assay [3] (setting [8]), less than 1 µM.

Regarding `COc1ccc(O)c(-c2n[nH]c(=S)n2Cc2ccccc2)c1` [Compound 7, 4-benzyl-3-(2-hydroxy-5-methoxyphenyl)-4,5-dihydro-1H-1,2,4-triazole-5-thione], the inhibition constant (Ki) in assay [5] is less than 1 µM; in assay [1] it was more than 100 µM; in assay [2], more than 100 µM; in assay [3] (setting [8]), 1 to 10 µM.

Consider `S=c1[nH]nc(-c2ccccc2)n1[C@@H]1C[C@H]1c1ccccc1` [Compound 20, 3-phenyl-4-[(1R,2S)-2-phenylcyclopropyl]-4,5-dihydro-1H-1,2,4-triazole-5-thione], for which the Ki was more than 100 µM in assay [1] and 10 to 100 µM in assay [2]. In assay [3] (setting [7]), the “% inhibition VIM-2” value amounted to 70% at 200 μM.

`Cn1cccc1-c1n[nH]c(=S)n1CCCC(=O)O` [Compound 48, 4-[3-(1-Methyl-1H-pyrrol-2-yl)-5-thioxo-1,4-dihydro-1,2,4-triazol-4-yl]butyric acid]: the Ki in assay [1], in assay [2] and in assay [3] (setting [8]) was more than 100 µM in each case. Further, the “% inhibition VIM-4” value in assay [4] came to 75% at 100 μM.

For `Cn1cccc1-c1n[nH]c(=S)n1CCc1ccccc1C(=O)O` [Compound 44], the Ki in assay [1] was more than 100 µM; in assay [2] it was more than 100 µM; in assay [3] (setting [8]) it was less than 1 µM. Moreover, the “% inhibition VIM-4” value in assay [4] worked out at 80% at 100 μM.

Take `O=C(O)CCCn1c(-c2cccc(-c3ccccc3)c2)n[nH]c1=S` [Compound 38, 5-(3-Biphenyl)-4-[3-carboxypropanyl]-1,2,4-triazole-3-thione]: the Ki was more than 100 µM in assay [5], more than 100 µM in assay [1], more than 100 µM in assay [2] and less than 1 µM in assay [3] (setting [8]).
